≈ marks a conversion by molar mass, not a printed value. Calls of active or inactive are those of the source. The rule behind the calls is not given here.

We go through 11 molecules from ChEMBL document CHEMBL4190309, “Synthesis, antimicrobial, DNA cleavage and antioxidant activities of tricyclic sultams derived from saccharin” (Eur J Med Chem, 2017).

Test [1] can be described thus: Antioxidant activity assessed as ABTS radical scavenging activity at 2 uM by spectrophotometric analysis. The format is functional.
For test [2], the system named is Escherichia coli. Description: Antibacterial activity against Escherichia coli ATCC 25922 assessed as diameter of inhibition zone at 100 uM after 24 hrs by cup diffusion method. As to conditions: ATCC 25922, 24 h, read-out: DIZ. The format is functional.
For test [3], the system named is Staphylococcus aureus. Description: Antibacterial activity against Staphylococcus aureus ATCC 25923 assessed as diameter of inhibition zone at 100 uM after 24 hrs by cup diffusion method. The format is functional. Conditions: ATCC 25923, 24 h, read-out: DIZ.
The subject of test [4] is Pseudomonas aeruginosa. Description: Antibacterial activity against Pseudomonas aeruginosa ATCC 27853 assessed as diameter of inhibition zone at 100 uM after 24 hrs by cup diffusion method. The format is functional. As to conditions: ATCC 27853, 24 h, read-out: DIZ.
In test [5] the test system is Priestia megaterium. The experiment in a line: Antibacterial activity against Bacillus megaterium ATCC 14591 assessed as diameter of inhibition zone at 100 uM after 24 hrs by cup diffusion method. The format is functional. As to conditions: ATCC 14591, 24 h, read-out: DIZ.
For test [6], the system named is Escherichia coli. Description: Antibacterial activity against Escherichia coli ATCC 25922 after 24 hrs by serial dilution method. As to conditions: ATCC 25922, 24 h. The format is functional.
The subject of test [7] is Staphylococcus aureus. Description: Antibacterial activity against Staphylococcus aureus ATCC 25923 after 24 hrs by serial dilution method. The format is functional. Conditions: ATCC 25923, 24 h.
In test [8] the test system is Pseudomonas aeruginosa. The experiment in a line: Antibacterial activity against Pseudomonas aeruginosa ATCC 27853 after 24 hrs by serial dilution method. The format is functional. Conditions: ATCC 27853, 24 h.
The test system of test [9] is DNA. The experiment in a line: Induction of Escherichia coli DNA cleavage after 1 hr by […] staining-based agarose gel electrophoresis. The format is nucleic-acid assay.
The test system of test [10] is DNA. Description: Induction of Escherichia coli DNA cleavage at 2 uM after 1 hr by […] staining-based agarose gel electrophoresis. The format is nucleic-acid assay.
In test [11] the test system is DNA. Description: Induction of Escherichia coli DNA cleavage at 6 uM after 1 hr by […] staining-based agarose gel electrophoresis. The format is nucleic-acid assay.
For test [12], the system named is DNA. Description: Induction of Escherichia coli DNA cleavage at 8 uM after 1 hr by […] staining-based agarose gel electrophoresis. The format is nucleic-acid assay.
Test [13] deals with DNA. The experiment in a line: Induction of Escherichia coli DNA cleavage at 10 to 12 uM after 1 hr by […] staining-based agarose gel electrophoresis. The format is nucleic-acid assay.
A short description of test [14]: Antiproliferative activity against hepatic cancer cells (unknown origin) at 50 uM by MTT assay relative to control. The format is functional.
Test [15] is described as follows: Antioxidant activity assessed as superoxide anion scavenging activity at 2 uM at pH 8.3 by NBT/NADH/PMS assay relative to control. The format is functional.
A short description of test [16]: Antioxidant activity assessed as superoxide anion scavenging activity at pH 8.3 by NBT/NADH/PMS assay. The format is functional.
Test [17] concerns DNA. The experiment in a line: Induction of Escherichia coli DNA cleavage at 4 uM after 1 hr by […] staining-based agarose gel electrophoresis. The format is nucleic-acid assay.

As to `COC(=O)C1=C2c3ccccc3S(=O)(=O)N2CC1`, the Activity in [1] is 63.8%; in test [9] it was “Dose-dependent effect”; in [14] it was 36.6%; in [15], 59.4%; in test [16], “Dose-dependent effect”. For the same molecule, the zone of inhibition at 100 µM in test [2] was 17 mm; in test [3], 20 mm; in [4], 16 mm; in test [5] it was 19 mm. The values for the MIC in test [6], in [7] and in test [8] were 15 µg/mL (≈ 56.5 µM), 15 µg/mL (≈ 56.5 µM) and 14 µg/mL (≈ 52.8 µM), respectively. Further, the result in test [10] was inactive. Moreover, the result in [11], in test [12] and in test [13] was Active. Moreover, the 50% inhibitory concentration (IC50) – broadly, the concentration that inhibits the measured activity by half – in test [16] amounted to 1.68 µM.

As to `CN[C@H](CC(C)C)C(=O)N[C@H]1C(=O)N[C@@H](CC(N)=O)C(=O)N[C@H]2C(=O)N[C@H]3C(=O)N[C@H](C(=O)N[C@H](C(=O)O)c4cc(O)cc(O)c4-c4cc3ccc4O)[C@H](O)c3ccc(c(Cl)c3)Oc3cc2cc(c3O[C@@H]2O[C@H](CO)[C@@H](O)[C@H](O)[C@H]2O[C@H]2C[C@](C)(N)[C@H](O)[C@H](C)O2)Oc2ccc(cc2Cl)[C@H]1O` [VANCOMYCIN], the MIC (commonly the lowest concentration that inhibits growth of the organism) in test [7] turned out to be 14 µg/mL (≈ 9.66 µM).

With `COc1ccc(NC(=O)C2=C3c4ccccc4S(=O)(=O)N3CC2)cc1`, the Activity in test [1] is 48.2%; in [9], “Dose-dependent effect”; in test [14], 61%; in test [15] it was 49.4%; in [16], “Dose-dependent effect”. Moreover, the zone of inhibition at 100 µM in [2] is 15 mm; in test [3], 16 mm; in test [4], 14 mm; in test [5], 13 mm. Besides, the minimal inhibitory concentration (MIC) was 22 µg/mL (≈ 61.7 µM) in [6], 22 µg/mL (≈ 61.7 µM) in test [7] and 33 µg/mL (≈ 92.6 µM) in [8]. Besides, the result in [10] was inactive. The result in test [12] and in test [13] was Active. The IC50 in test [16] was determined as 2.02 µM.

On to `CC(C)[C@@H]1CC[C@@H](C)C[C@H]1OC(=O)C1=C2c3ccccc3S(=O)(=O)N2CC1`, for which the Activity in [1] was 60.3%; in test [9], “Dose-dependent effect”; in [14], 70.2%; in [15], 58.6%; in test [16], “Dose-dependent effect”. Further, the zone of inhibition at 100 µM in test [2] came to 17 mm; in test [3], 19 mm; in test [4], 18 mm; in [5], 18 mm. The figures for the MIC in test [6], in [7] and in test [8] were 33 µg/mL (≈ 84.7 µM), 24 µg/mL (≈ 61.6 µM) and 25 µg/mL (≈ 64.2 µM), respectively. For the same molecule, in test [10], the result was inactive. Moreover, the outcome in test [17], in [11], in [12] and in [13] was Active. The IC50 in test [16] is 1.71 µM.

In the case of `Cc1ccccc1NC(=O)C1=C2c3ccccc3S(=O)(=O)N2CC1`, the Activity in test [1] was 62.5%; in test [9], “Dose-dependent effect”; in test [14], 49.6%; in test [15] it was 61.7%; in test [16], “Dose-dependent effect”. In addition, the zone of inhibition at 100 µM in [2] came out at 17 mm; in [3], 19 mm; in [4] it was 18 mm; in test [5], 20 mm. Besides, the MIC in test [6] was found to be 11 µg/mL (≈ 32.3 µM); in test [7] it was 12 µg/mL (≈ 35.3 µM); in [8], 17 µg/mL (≈ 49.9 µM). The result in test [10] was inactive. Besides, the result in test [17], in [11] and in [13] was Active. Besides, the IC50 in [16] stood at 1.62 µM.

For the molecule `O=C(Nc1ccccc1)C1=C2c3ccccc3S(=O)(=O)N2CC1`, the Activity in [1] is 46.9%; in test [9], “Dose-dependent effect”; in [14] it was 58.6%; in test [15], 44.8%; in test [16] it was “Dose-dependent effect”. The zone of inhibition at 100 µM in test [2] was determined as 13 mm; in test [3], 14 mm; in test [4], 12 mm; in test [5] it was 12 mm. Also, the values for the MIC in [6], in [7] and in [8] were 21 µg/mL (≈ 64.3 µM), 16 µg/mL (≈ 49 µM) and 28 µg/mL (≈ 85.8 µM), respectively. Further, the outcome in test [10] was inactive. The result in [13] was Active. The IC50 in test [16] was determined as 2.23 µM.

On to `CCOC(=O)C1=C2c3ccccc3S(=O)(=O)N2CC1`, for which the Activity in test [1] was 46.7%; in test [9], “Dose-dependent effect”; in test [14], 19.6%; in test [15] it was 48.3%; in [16], “Dose-dependent effect”. The zone of inhibition at 100 µM was 16 mm in test [2], 17 mm in test [3], 14 mm in test [4] and 16 mm in [5]. For the same molecule, the MIC in test [6] amounted to 18 µg/mL (≈ 64.4 µM); in test [7], 14 µg/mL (≈ 50.1 µM); in test [8], 15 µg/mL (≈ 53.7 µM). Further, the result in [10] was inactive. Moreover, the outcome in test [12] and in test [13] was Active. Moreover, the IC50 in test [16] is 2.07 µM.

With `CC1(C)[C@H]2CC[C@]1(C)[C@H](OC(=O)C1=C3c4ccccc4S(=O)(=O)N3CC1)C2`, the Activity was 62.7% in [1]; “Dose-dependent effect” in test [9]; 63% in test [14]; 60.1% in [15]; “Dose-dependent effect” in [16]. For the same molecule, the zone of inhibition at 100 µM in [2] was found to be 16 mm; in [3] it was 18 mm; in test [4], 14 mm; in test [5], 17 mm. Besides, the minimal inhibitory concentration (MIC) in test [6] amounted to 23 µg/mL (≈ 59.4 µM); in test [7] it was 18 µg/mL (≈ 46.5 µM); in test [8] it was 27 µg/mL (≈ 69.7 µM). Further, in [10], the outcome was inactive. Moreover, the outcome in [11], in test [12] and in test [13] was Active. In addition, the IC50 in test [16] came to 1.66 µM.

Consider `O=C(Nc1ccc([N+](=O)[O-])cc1)C1=C2c3ccccc3S(=O)(=O)N2CC1`, for which the Activity in test [1] was 54.7%; in test [9], “Dose-dependent effect”; in test [14] it was 56.6%; in [15] it was 51.2%; in test [16], “Dose-dependent effect”. Also, the zone of inhibition at 100 µM came to 13 mm in [2], 12 mm in [3], 14 mm in test [4] and 11 mm in test [5]. For the same molecule, the MIC in test [6] was found to be 24 µg/mL (≈ 64.6 µM); in test [7], 18 µg/mL (≈ 48.5 µM); in [8], 19 µg/mL (≈ 51.2 µM). For the same molecule, the outcome in test [10] was inactive. The outcome in [12] and in [13] was Active. For the same molecule, the IC50 in [16] was found to be 1.95 µM.

In the case of `CC1(C)S[C@@H]2[C@H](NC(=O)[C@H](N)c3ccccc3)C(=O)N2[C@H]1C(=O)O` [AMPICILLIN], the zone of inhibition at 100 µM in [2] came to 19 mm; in test [3] it was 23 mm; in [4], 20 mm; in [5] it was 21 mm.

Regarding `O=C(OCCCl)C1=C2c3ccccc3S(=O)(=O)N2CC1`, the Activity in test [1] was 64.8%; in test [9], “Dose-dependent effect”; in test [14], 59.6%; in test [15], 63.1%; in test [16], “Dose-dependent effect”. For the same molecule, the zone of inhibition at 100 µM in test [2] amounted to 17 mm; in [3], 20 mm; in [4] it was 18 mm; in test [5] it was 20 mm. Moreover, the results for the MIC in test [6], in test [7] and in test [8] were 21 µg/mL (≈ 66.9 µM), 8 µg/mL (≈ 25.5 µM) and 20 µg/mL (≈ 63.7 µM), respectively. The result in test [10] was inactive. Moreover, the outcome in [17], in test [11], in [12] and in [13] was Active. For the same molecule, in test [16], the 50% inhibitory concentration (IC50) was determined as 1.58 µM.
